How the values were obtained:
[1] = target: T1, sGC α1/β1 heterodimer stably expressed in CHO-K1 cells (CHO-K1/sGC) (Homo sapiens, UniProt Q02108+Q02153); assay: Cell-based sGC Functional Assay (CASA Assay); conditions: for Emax: CHO-K1, activation as percentage of maximum cGMP production of Compound A (set to 100%), read-out: % Act.; for EC50: inflection point of cGMP generation in CHO-K1/sGC cells, 4P fit, 1 hr at 37° C., read-out: IP
T1 construct: expressed in transfected cells
T1 sequence (Q02108 1-690): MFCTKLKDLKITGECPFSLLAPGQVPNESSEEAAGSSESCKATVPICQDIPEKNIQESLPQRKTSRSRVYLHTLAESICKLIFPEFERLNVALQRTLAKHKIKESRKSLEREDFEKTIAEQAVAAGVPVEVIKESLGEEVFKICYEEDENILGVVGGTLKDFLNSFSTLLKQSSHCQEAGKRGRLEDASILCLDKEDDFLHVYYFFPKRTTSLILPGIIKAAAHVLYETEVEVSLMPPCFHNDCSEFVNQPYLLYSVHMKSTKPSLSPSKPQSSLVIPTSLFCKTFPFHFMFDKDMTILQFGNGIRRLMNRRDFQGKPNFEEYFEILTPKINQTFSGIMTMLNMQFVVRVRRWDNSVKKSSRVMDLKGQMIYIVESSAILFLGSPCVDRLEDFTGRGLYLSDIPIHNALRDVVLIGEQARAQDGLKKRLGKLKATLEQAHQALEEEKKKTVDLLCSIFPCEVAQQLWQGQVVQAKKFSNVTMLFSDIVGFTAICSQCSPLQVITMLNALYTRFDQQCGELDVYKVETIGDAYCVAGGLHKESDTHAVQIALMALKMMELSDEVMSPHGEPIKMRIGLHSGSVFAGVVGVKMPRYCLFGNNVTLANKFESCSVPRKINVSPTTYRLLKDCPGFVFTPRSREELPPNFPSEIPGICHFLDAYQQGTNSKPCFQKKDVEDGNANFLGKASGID
T1 sequence (Q02153 1-619): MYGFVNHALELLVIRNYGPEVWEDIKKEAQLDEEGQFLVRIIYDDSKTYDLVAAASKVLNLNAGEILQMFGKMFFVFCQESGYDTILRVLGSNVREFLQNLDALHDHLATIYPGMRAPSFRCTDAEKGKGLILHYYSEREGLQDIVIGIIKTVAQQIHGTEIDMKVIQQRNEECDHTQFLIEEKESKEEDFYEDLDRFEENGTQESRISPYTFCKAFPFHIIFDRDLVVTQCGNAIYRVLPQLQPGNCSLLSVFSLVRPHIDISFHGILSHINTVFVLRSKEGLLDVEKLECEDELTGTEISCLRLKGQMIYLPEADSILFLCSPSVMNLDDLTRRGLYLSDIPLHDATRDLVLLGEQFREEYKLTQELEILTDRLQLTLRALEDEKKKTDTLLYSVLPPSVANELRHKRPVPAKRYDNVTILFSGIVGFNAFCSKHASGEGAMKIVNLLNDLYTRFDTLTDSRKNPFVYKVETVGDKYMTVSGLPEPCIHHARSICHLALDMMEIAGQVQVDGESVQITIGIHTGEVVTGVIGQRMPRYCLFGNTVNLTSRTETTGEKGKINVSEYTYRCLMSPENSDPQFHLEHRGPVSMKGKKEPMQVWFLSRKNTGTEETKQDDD
In short: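 CHO-K1 cells stably expressing human sGC α1/β1 were incubated with compound for 1 h at 37 °C in buffer with 0.5 mM IBMX and 2.5% DMSO, with or without 1 μM DETA-NO. Intracellular cGMP was read by HTRF and expressed as percentage of maximal activation by reference activator Compound A. Values came from a 4-parameter fit.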

[2] = tested on: Spontaneously hypertensive rats (SHR); assay: Acute Efficacy in Spontaneously Hypertensive Rats (SHR); assay type: in vivo, rat; conditions: single oral dose
Excerpt: Spontaneously hypertensive rats (SHR, male, Charles River) were implanted with DSI TA11PA-C40 telemetry device (Data Sciences, Inc., St. Paul, Minn.) under isoflurane or ketamine/metomidine anesthesia. The telemetry unit catheter was inserted into the descending aorta via the femoral artery and the telemetry device was implanted subcutaneously in the left flank area. Animals were allowed to recover from surgery for 14 days before the start of any studies. Blood pressure, heart rate, and activity signals from conscious, freely moving rats were recorded continuously for 30 seconds every 10 min. On the day prior to administration of compound, a single oral dose of vehicle (10% transcutol/20% Cremophor/70% water) was administered to all animals to establish baseline control data. The blood pressure lowering efficacy of compound (PO) or vehicle was evaluated following a single oral gavage. Data were collected as hourly averages, and changes in blood pressure were calculated by subtracting control baseline data on an hourly basis. Animals were maintained on normal diet with a 12 hour light-dark cycle.
Maximum peak decreases of systolic blood pressure (SBP) in SHR at a particular P.O. dose (mpk milligrams per kilogram) for the following representative compounds are provided in Table 9. Category A=SBP in SHRs <15 mmHg; Category B=SBP in SHRs 15-25 mmHg; Category C=SBP in SHRs >25 mmHg

| SMILES | Emax [1] [%] | EC50 [1] [µM] | % Act. ([1]; activation as percentage of maximum cGMP production of Compound A (set to 100%)) [%] | Category: maximum peak decrease of systolic blood pressure (SBP) in SHR ([2]; P.O. 3 mpk) | Category: maximum peak decrease of systolic blood pressure (SBP) in SHR ([2]; P.O. 1 mpk) | Category: maximum peak decrease of systolic blood pressure (SBP) in SHR ([2]; P.O. 0.3 mpk) |
| --- | --- | --- | --- | --- | --- | --- |
| [2H]C([2H])([2H])n1ncc2c(-c3nc(N)c4c(n3)NC(=O)C4(c3nnnn3C)C3CC3)nc(CCC(F)(F)C(F)(F)F)nc21 (stereo not drawn) [Example 25, 4-Amino-5-cyclopropyl-5-(1-methyl-1H-tetrazol-5-yl)-2-(1-(methyl-d3)-6-(3,3,4,4,4-pentafluorobutyl)-1H-pyrazolo[3,4-d]pyrimidin-4-yl)-5,7-dihydro-6H-pyrrolo[2,3-d]pyrimidin-6-one] | 93 | 0.991 |  | C (Category C=SBP in SHRs >25 mmHg) |  |  |
| CC(C)n1cc(C2(C)C(=O)Nc3nc(-c4nc(CCCC(F)(F)F)nc5c4cnn5C)nc(N)c32)nn1 (stereo not drawn) [Example 78, 4-Amino-5-(1-isopropyl-1H-1,2,3-triazol-4-yl)-5-methyl-2-(1-methyl-6-(4,4,4-trifluorobutyl)-1H-pyrazolo[3,4-d]pyrimidin-4-yl)-5,7-dihydro-6H-pyrrolo[2,3-d]pyrimidin-6-one] | 103 | 0.368 |  |  | C (Category C=SBP in SHRs >25 mmHg) |  |
| Cn1ccc2c(-c3nc(N)c4c(n3)NC(=O)C4(C)c3nnc(C4CC4)o3)nc(CCC(F)(F)C(F)(F)F)nc21 (stereo not drawn) [Example 86, 4-Amino-5-(5-cyclopropyl-1,3,4-oxadiazol-2-yl)-5,7′-dimethyl-2′-(3,3,4,4,4-pentafluorobutyl)-5,7-dihydro-6H,7′H-[2,4′-bipyrrolo[2,3-d]pyrimidin]-6-one] | 104 | 0.41 |  |  | B (Category B=SBP in SHRs 15-25 mmHg) |  |

Now those with a lower EC50 [1], led by results:

| Emax [1] [%] | EC50 [1] [µM] | % Act. ([1]; activation as percentage of maximum cGMP production of Compound A (set to 100%)) [%] | SMILES | Category: maximum peak decrease of systolic blood pressure (SBP) in SHR ([2]; P.O. 3 mpk) | Category: maximum peak decrease of systolic blood pressure (SBP) in SHR ([2]; P.O. 1 mpk) | Category: maximum peak decrease of systolic blood pressure (SBP) in SHR ([2]; P.O. 0.3 mpk) |
| --- | --- | --- | --- | --- | --- | --- |
| 165 | 0.265 |  | [2H]C([2H])([2H])n1ncc2c(-c3nc(N)c4c(n3)NC(=O)C4(c3nnc(C4CC4)o3)C3CC3)nc(CCC(F)(F)C(F)(F)F)nc21 (stereo not drawn) [Example 38, 4-Amino-5-cyclopropyl-5-(5-cyclopropyl-1,3,4-oxadiazol-2-yl)-2-(1-(methyl-d3)-6-(3,3,4,4,4-pentafluorobutyl)-1H-pyrazolo[3,4-d]pyrimidin-4-yl)-5,7-dihydro-6H-pyrrolo[2,3-d]pyrimidin-6-one] |  | C (Category C=SBP in SHRs >25 mmHg) |  |
| 113 | 0.225 |  | Cn1ncc2c(-c3nc(N)c4c(n3)NC(=O)C4(c3nnc(C4CC4)o3)C3CC3)nc(CCC(F)(F)C(F)(F)F)nc21 (stereo not drawn) [Example 44, 4-Amino-5-cyclopropyl-5-(5-cyclopropyl-1,3,4-oxadiazol-2-yl)-2-(1-methyl-6-(3,3,4,4,4-pentafluorobutyl)-1H-pyrazolo[3,4-d]pyrimidin-4-yl)-5,7-dihydro-6H-pyrrolo[2,3-d]pyrimidin-6-one] |  | B (Category B=SBP in SHRs 15-25 mmHg) |  |
| 93 | 0.235 |  | [2H]C([2H])([2H])n1ncc2c(-c3nc(N)c4c(n3)NC(=O)C4(C)c3cn(CC4CC4)nn3)nc(CCC(F)(F)C(F)(F)F)nc21 (stereo not drawn) [Example 63, 4-Amino-5-(1-(cyclopropylmethyl)-1H-1,2,3-triazol-4-yl)-5-methyl-2-(1-(methyl-d3)-6-(3,3,4,4,4-pentafluorobutyl)-1H-pyrazolo[3,4-d]pyrimidin-4-yl)-5,7-dihydro-6H-pyrrolo[2,3-d]pyrimidin-6-one] |  | A (Category A=SBP in SHRs <15 mmHg) |  |
|  | 0.12 | 128 | [2H]C([2H])([2H])n1ncc2c(-c3nc(N)c4c(n3)NC(=O)C4(C)c3cn(C(C)C)nn3)nc(CCC(F)(F)C(F)(F)F)nc21 (stereo not drawn) [Example 67, 4-Amino-5-(1-isopropyl-1H-1,2,3-triazol-4-yl)-5-methyl-2-(1-(methyl-d3)-6-(3,3,4,4,4-pentafluorobutyl)-1H-pyrazolo[3,4-d]pyrimidin-4-yl)-5,7-dihydro-6H-pyrrolo[2,3-d]pyrimidin-6-one] |  |  | B (Category B=SBP in SHRs 15-25 mmHg) |
